From patent US11155560B2, “Substituted pyrazolo[1,5-a]pyrimidines for modulating CDK9 activity” (Kronos Bio, Inc., priority 2018, dated 2021)

Biological target: CDK9/cyclin T1 (Homo sapiens, UniProt P50750)
Test: CDK9/cyclin T1 kinase inhibition, LANCE assay
Type: biochemical
Settings: reaction time 60 minutes, 10 μM ATP, 10-dose IC50, compounds 35-126 (127-208 listed, method not stated), read-out: CDK9/cyclin T1 Potency Grade
Experimental: Exemplary compounds of the invention (35-126) were tested for inhibition of CDK9/cyclin T1 kinase. Using a LANCE assay (reaction time 60 minutes), the compounds were tested in 10-dose IC50 duplicate mode with a 3-fold serial dilution starting at 4.3 μM. […] Reactions were carried out at 10 μM ATP. Data was normalized to positive and negative controls and curve fits were analyzed with XLFIT5 as % inhibition vs. log [compound concentration] using a 4-parameter logistic model205. Fit=(A+((B−A)/(1+((C/x)^D)))); Res =(y-fit).

Sequence of CDK9/cyclin T1 (P50750 whole entry): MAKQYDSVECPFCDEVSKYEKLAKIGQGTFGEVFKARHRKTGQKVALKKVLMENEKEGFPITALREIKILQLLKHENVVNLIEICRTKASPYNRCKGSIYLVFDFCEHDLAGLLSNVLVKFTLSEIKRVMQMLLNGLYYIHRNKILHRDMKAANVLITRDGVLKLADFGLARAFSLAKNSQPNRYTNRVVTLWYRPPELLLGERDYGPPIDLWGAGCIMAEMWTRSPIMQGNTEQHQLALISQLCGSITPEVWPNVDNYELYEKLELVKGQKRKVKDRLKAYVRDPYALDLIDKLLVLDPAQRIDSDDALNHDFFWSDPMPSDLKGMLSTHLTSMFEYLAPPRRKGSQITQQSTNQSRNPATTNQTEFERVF
Sequence of CDK9/cyclin T1 (O60563 whole entry partner): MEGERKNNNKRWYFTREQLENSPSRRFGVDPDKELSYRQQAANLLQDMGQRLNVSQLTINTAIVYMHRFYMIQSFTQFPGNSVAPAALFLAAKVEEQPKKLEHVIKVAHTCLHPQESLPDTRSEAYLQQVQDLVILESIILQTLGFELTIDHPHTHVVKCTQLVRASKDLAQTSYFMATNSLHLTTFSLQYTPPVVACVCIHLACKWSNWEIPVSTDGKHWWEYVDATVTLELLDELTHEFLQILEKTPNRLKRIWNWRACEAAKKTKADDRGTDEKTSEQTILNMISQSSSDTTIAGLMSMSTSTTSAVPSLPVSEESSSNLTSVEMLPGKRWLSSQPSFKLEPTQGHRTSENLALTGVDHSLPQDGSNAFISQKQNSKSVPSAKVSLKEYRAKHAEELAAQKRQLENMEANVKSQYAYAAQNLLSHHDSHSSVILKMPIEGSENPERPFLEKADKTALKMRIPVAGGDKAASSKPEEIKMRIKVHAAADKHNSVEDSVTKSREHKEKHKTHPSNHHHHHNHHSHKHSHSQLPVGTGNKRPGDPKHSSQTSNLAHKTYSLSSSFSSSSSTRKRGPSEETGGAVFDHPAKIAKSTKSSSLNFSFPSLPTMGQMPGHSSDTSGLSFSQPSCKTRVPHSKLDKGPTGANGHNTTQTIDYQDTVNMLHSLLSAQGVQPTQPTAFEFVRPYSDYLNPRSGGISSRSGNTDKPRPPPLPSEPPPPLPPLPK

Row | SMILES | IC50 [µM]
1 | N[C@@H]1CC[C@@H](Nc2cc(C3CCC3)nc3ccnn23)C1 [Compound 42] | 0.001 to 0.5
2 | N[C@@H]1CC[C@@H](Nc2cc(C3CC3)nc3ccnn23)C1 [Compound 43] | 0.001 to 0.5
3 | CC(C)c1cc(N[C@@H]2CC[C@@H](NC=O)C2)n2nccc2n1 [Compound 46] | 0.001 to 0.5
4 | CCc1cc(N[C@H]2CC[C@H](N)C2)n2nccc2n1 [Compound 47] | 0.001 to 0.5
5 | CC(C)c1cc(N[C@@H]2CC[C@@H](NC(=O)OCc3ccccc3)C2)n2nccc2n1 [Compound 50] | 0.001 to 0.5
6 | O=CN[C@@H]1CC[C@@H](Nc2cc(C3CC3)nc3ccnn23)C1 [Compound 51] | 0.001 to 0.5
7 | CCC(C)c1cc(N[C@@H]2CC[C@@H](NC=O)C2)n2nccc2n1 (some centres unmarked) [Compound 52] | 0.001 to 0.5
8 | CCC(CC)c1cc(N[C@H]2CC[C@H](NC(=O)c3cnc(C)cn3)C2)n2nccc2n1 [Compound 57] | 0.001 to 0.5
9 | COCCN[C@@H]1CC[C@@H](Nc2cc(C(C)C)nc3ccnn23)C1 [Compound 59] | 0.001 to 0.5
10 | CC(C)c1cc(N[C@@H]2CC[C@@H](N(O)C(N)=O)C2)n2nccc2n1 [Compound 60] | 0.001 to 0.5
11 | CCC(CC)c1cc(N[C@H]2CC[C@H](N(C)CCOC)C2)n2nccc2n1 [Compound 62] | 0.001 to 0.5
12 | CN/C(=N/C#N)N[C@@H]1CC[C@@H](Nc2cc(C(C)C)nc3ccnn23)C1 [Compound 63] | 0.001 to 0.5
13 | CC(C)c1cc(N[C@H]2CC[C@H](N)C2)n2ncc(C#N)c2n1 [Compound 64] | 0.001 to 0.5
14 | CC(C)c1cc(N[C@@H]2CC[C@@H](NC(=O)OCc3ccccc3)C2)n2ncc(Cl)c2n1 [Compound 67] | 0.001 to 0.5
15 | CC(C)OC(=O)N[C@@H]1CC[C@@H](Nc2cc(C(C)C)nc3c(Cl)cnn23)C1 [Compound 68] | 0.501 to 1
16 | COc1cc(C)cc(-c2cc(N[C@H]3CC[C@H](N)C3)n3nccc3n2)c1 [Compound 70] | 0.001 to 0.5
17 | N[C@H]1CC[C@H](Nc2cc(Nc3ccc4ccccc4c3)nc3ccnn23)C1 [Compound 71] | 0.001 to 0.5
18 | N[C@H]1CC[C@H](Nc2cc(-c3cccc(Cl)c3)nc3ccnn23)C1 [Compound 75] | 0.001 to 0.5

Row | SMILES | IC50 [µM]
19 | CC(C)Cc1cc(N[C@H]2CC[C@H](N)C2)n2ncc(Cl)c2n1 [Compound 76] | 0.001 to 0.5
20 | COc1cc(N[C@@H]2CC[C@@H](N)C2)n2nccc2n1 [Compound 77] | 0.501 to 1
21 | CCN(CC)c1cc(N[C@H]2CC[C@H](N)C2)n2nccc2n1 [Compound 79] | 0.001 to 0.5
22 | N[C@H]1CC[C@H](Nc2cc(Nc3cccc4ccccc34)nc3ccnn23)C1 [Compound 80] | 0.001 to 0.5
23 | O=C(N[C@H]1CC[C@H](Nc2cc(C3CC3)nc3ccnn23)C1)OCc1ccccc1 [Compound 84] | > 1
24 | Cc1cnn2c(N[C@@H]3CC[C@@H](NC(=O)OC(C)C)C3)cc(C(C)C)nc12 [Compound 85] | 0.001 to 0.5
25 | CC(C)N(C)c1cc(N[C@H]2CC[C@H](N)C2)n2nccc2n1 [Compound 86] | 0.001 to 0.5
26 | Cc1cnn2c(N[C@@H]3CC[C@@H](NC(=O)OCc4ccccc4)C3)cc(C(C)C)nc12 [Compound 87] | 0.001 to 0.5
27 | COCCNc1cc(N[C@H]2CC[C@H](N)C2)n2nccc2n1 [Compound 88] | 0.501 to 1
28 | COC(=O)N[C@H]1CC[C@H](Nc2cc(C3CC3)nc3ccnn23)C1 [Compound 89] | > 1
29 | CN(CCO)c1cc(N[C@H]2CC[C@H](N)C2)n2nccc2n1 [Compound 90] | 0.001 to 0.5
30 | CCOc1cc(N[C@H]2CC[C@H](N)C2)n2nccc2n1 [Compound 91] | 0.501 to 1
31 | CN(Cc1ccccc1)c1cc(N[C@H]2CC[C@H](N)C2)n2nccc2n1 [Compound 97] | 0.001 to 0.5
32 | CCNc1cc(N[C@H]2CC[C@H](N)C2)n2nccc2n1 [Compound 98] | 0.001 to 0.5
33 | CN1CCN(c2cc(N[C@H]3CC[C@H](N)C3)n3nccc3n2)CC1 [Compound 99] | > 1
34 | Cc1cc(-c2cc(N[C@H]3CC[C@H](N)C3)n3nccc3n2)ccn1 [Compound 100] | 0.001 to 0.5
35 | COc1cc(-c2cc(N[C@H]3CC[C@H](N)C3)n3nccc3n2)ccn1 [Compound 101] | 0.001 to 0.5
